One assay deals with T1, delF508-CFTR-HRP (Homo sapiens, UniProt P13569, DEL508-508).
T1 construct: expressed in transfected cells
Nature of the assay: Measurement of delF508-CFTR-HRP surface expression in CFBE41o- cells (HRP luminescence).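 As to DelF508-CFTR-HRP Amax %: percent efficacy relative to a reference CFTR corrector compound.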 The assay is classed as cell-based. The conditions noted are these: for Emax: CFBE41o-, read-out: DelF508-CFTR-HRP Amax %; for EC50: mean of at least two replicates. In outline:
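EC50 derived by logistic regression of triplicate surface-HRP luminescence, plate-normalized to the lowest-concentration median. Doxycycline (500 ng/mL, 48 h) induced delF508-CFTR-HRP in CFBE41o- cells; compounds then applied 24 h at 37° C, 10 μM top, 3-fold over 10 points.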

For another assay, the target named is T2, delF508-CFTR (Homo sapiens, UniProt P13569, DEL508-508).
T2 construct: functional activity of the CFTR channel (Chloride ion transport) in patient derived primary human bronchial epithelial cells; host or cells: patient-derived primary human bronchial epithelial cells (HBECs), delF508-CFTR
Nature of the assay: delF508-CFTR functional activity in primary human bronchial epithelial cells (HBECs), Multi-Transepithelial Clamp Circuit (MTECC-24) assay, equivalent short circuit current. It is filed as cell-based. The following applies: primary CF HBECs; for MTECC24 CFHBEC-Amax %: relative to reference combination 2 μM 3-(6-(1-(2,2-difluorobenzo[d][1,3]dioxol-5-yl)cyclopropane-1-carboxamido)-3-methylpyridin-2-yl)benzoic acid (24 h) + 0.5 μM N-(2,4-di-tert-butyl-5-hydroxyphenyl)-4-oxo-1,4-dihydroquinoline-3-carboxamide; for EC50: test compound added 24 h before assay, potentiator (S)-3-amino-6-methoxy-N-(3,3,3-trifluoro-2-hydroxy-2-methylpropyl)-5-(trifluoromethyl)picolinamide present at assay, mean of at least two replicates, read-out: MTECC24 CFHBEC-EC50. Put shortly: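 Compound acted as corrector on differentiated primary delF508-CFTR bronchial cultures, first 24 h basolaterally, then 45 min both sides before reading. Equivalent short circuit current was recorded during sequential forskolin and potentiator addition. EC50 came from 10-point, 1-in-3 dilution curves against the 0.1% DMSO baseline.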

As a reminder, the EC50 is the concentration needed to bring the measured effect to its halfway point.

T2 sequence (P13569 with tags, fused parts or gaps DEL508-508): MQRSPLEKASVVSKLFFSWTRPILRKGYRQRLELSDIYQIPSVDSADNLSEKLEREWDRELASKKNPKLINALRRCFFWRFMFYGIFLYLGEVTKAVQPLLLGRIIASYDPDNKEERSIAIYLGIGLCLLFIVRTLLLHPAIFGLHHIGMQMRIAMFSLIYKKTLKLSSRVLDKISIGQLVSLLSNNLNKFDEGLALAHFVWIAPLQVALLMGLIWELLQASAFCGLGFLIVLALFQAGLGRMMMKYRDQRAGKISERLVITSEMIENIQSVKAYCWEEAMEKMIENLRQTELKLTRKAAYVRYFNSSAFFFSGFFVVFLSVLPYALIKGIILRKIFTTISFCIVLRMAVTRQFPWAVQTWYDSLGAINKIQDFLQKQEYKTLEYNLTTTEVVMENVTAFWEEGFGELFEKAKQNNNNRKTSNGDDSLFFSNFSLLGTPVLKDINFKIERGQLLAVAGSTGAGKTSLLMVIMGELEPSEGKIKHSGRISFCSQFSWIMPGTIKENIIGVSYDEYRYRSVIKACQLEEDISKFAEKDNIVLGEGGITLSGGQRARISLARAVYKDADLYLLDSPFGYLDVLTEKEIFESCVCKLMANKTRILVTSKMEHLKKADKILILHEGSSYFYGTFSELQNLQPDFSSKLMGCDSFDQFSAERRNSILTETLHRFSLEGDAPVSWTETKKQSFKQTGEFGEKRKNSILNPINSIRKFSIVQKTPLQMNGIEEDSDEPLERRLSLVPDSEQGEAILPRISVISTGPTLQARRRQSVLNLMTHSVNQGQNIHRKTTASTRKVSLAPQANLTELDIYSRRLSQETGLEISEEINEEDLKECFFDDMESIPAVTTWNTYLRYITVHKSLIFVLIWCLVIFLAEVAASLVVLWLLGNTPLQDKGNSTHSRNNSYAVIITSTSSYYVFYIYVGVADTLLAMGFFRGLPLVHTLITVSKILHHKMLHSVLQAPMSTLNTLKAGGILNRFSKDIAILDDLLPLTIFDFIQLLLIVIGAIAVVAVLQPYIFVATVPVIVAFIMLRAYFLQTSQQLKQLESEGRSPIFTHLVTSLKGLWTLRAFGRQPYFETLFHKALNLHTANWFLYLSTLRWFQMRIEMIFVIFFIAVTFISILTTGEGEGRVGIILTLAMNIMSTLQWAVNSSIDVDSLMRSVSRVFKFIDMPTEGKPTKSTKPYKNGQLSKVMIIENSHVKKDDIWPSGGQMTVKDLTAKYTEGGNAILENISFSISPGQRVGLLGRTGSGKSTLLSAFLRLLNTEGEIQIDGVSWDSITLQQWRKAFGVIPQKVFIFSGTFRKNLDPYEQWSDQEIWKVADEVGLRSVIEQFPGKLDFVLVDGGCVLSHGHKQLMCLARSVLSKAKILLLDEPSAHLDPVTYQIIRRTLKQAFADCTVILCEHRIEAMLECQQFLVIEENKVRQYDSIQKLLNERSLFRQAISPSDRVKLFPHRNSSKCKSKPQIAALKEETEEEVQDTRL
T1 sequence (P13569 with tags, fused parts or gaps DEL508-508): as above

On to `COC(=O)C1(C)CCN(c2cccc(S(=O)(=O)NC(=O)C3(Oc4cc(C)ccc4C4CCCCC4)CC3)n2)CC1` [Example 2-3, Methyl 1-(6-(N-(1-(2-cyclohexyl-5-methylphenoxy)cyclopropanecarbonyl)sulfamoyl)pyridin-2-yl)-4-methylpiperidine-4-carboxylate], for which, at delF508-CFTR-HRP, the Emax amounted to 337% and the EC50 was 460 nM. In addition, at delF508-CFTR, the “MTECC24 CFHBEC-Amax %” value was determined as 79% and the concentration giving a half-maximal response (EC50) is 5 nM.

Consider `Cc1ccc(C2CCCCC2)c(OC2(C(=O)NS(=O)(=O)c3cccc(NC[C@@H](C)O)n3)CC2)c1` [Example 2-46, (R)-1-(2-cyclohexyl-5-methylphenoxy)-N-((6-((2-hydroxypropyl)amino)pyridin-2-yl)sulfonyl)cyclopropane-1-carboxamide], for which, on delF508-CFTR-HRP, the Emax turned out to be 813% and the EC50 stood at 2860 nM. In addition, at delF508-CFTR, the “MTECC24 CFHBEC-Amax %” value is 89% and the EC50 worked out at 3 nM.

Consider `Cc1ccc(C2CCC(F)(F)C2)c(OC2(C(=O)NS(=O)(=O)c3cccc(N4CCC[C@@H](CO)C4)n3)CC2)c1` (single isomer, unassigned) [Example 4-7], for which, at delF508-CFTR-HRP, the Emax is 314% and it took 2180 nM to reach a half-maximal effect (EC50). Besides, at delF508-CFTR, the “MTECC24 CFHBEC-Amax %” value is 138% and the EC50 is 156 nM.

As to `Cc1ccc(C2CCCOC2)c(OC2(C(=O)NS(=O)(=O)c3cccc(N4CCC[C@@H](CO)C4)n3)CC2)c1` (stereo partly drawn) [Example 4-20, N-((6-((R)-3-(hydroxymethyl)piperidin-1-yl)pyridin-2-yl)sulfonyl)-1-(5-methyl-2-(tetrahydro-2H-pyran-3-yl)phenoxy)cyclopropane-1-carboxamide], at delF508-CFTR-HRP, the Emax amounted to 202% and the EC50 was 3230 nM. Besides, at delF508-CFTR, the “MTECC24 CFHBEC-Amax %” value worked out at 54% and the EC50 was found to be 297 nM.

For `Cc1ccc(CC(C)C)c(OC2(C(=O)NS(=O)(=O)c3cccc(N4CCC[C@@H](CO)C4)n3)CC2)c1` [Example 4-8, (R)-N-((6-(3-(hydroxymethyl)piperidin-1-yl)pyridin-2-yl)sulfonyl)-1-(2-isobutyl-5-methylphenoxy)cyclopropane-1-carboxamide], on delF508-CFTR-HRP, the Emax turned out to be 388% and the midpoint of the response, the EC50, lay at 2200 nM. In addition, on delF508-CFTR, the “MTECC24 CFHBEC-Amax %” value was 80% and the EC50 was 11 nM.

For `CC1(O)CCN(c2cccc(S(=O)(=O)NC(=O)C3(Oc4cc(Cl)ccc4C4CC5(CCC5)C4)CC3)n2)CC1` [Example 7-12, 1-(5-Chloro-2-(spiro[3.3]heptan-2-yl)phenoxy)-N-((6-(4-hydroxy-4-methylpiperidin-1-yl)pyridin-2-yl)sulfonyl)cyclopropane-1-carboxamide], at delF508-CFTR-HRP, the Emax was 529% and the EC50 came out at 1090 nM. Further, at delF508-CFTR, the “MTECC24 CFHBEC-Amax %” value is on record as 152.6% and the EC50 is 195 nM.

In the case of `Cc1ccc(C2CCC3(CCC3)OC2)c(OC2(C(=O)NS(=O)(=O)c3cccc(N4CCC(C)(O)CC4)n3)CC2)c1` (single isomer, unassigned) [Example 11-4-1, N-((6-(4-hydroxy-4-methylpiperidin-1-yl)pyridin-2-yl)sulfonyl)-1-(5-methyl-2-(5-oxaspiro[3.5]nonan-7-yl)phenoxy)cyclopropane-1-carboxamide], on delF508-CFTR-HRP, the “DelF508-CFTR-HRP Amax %” value stood at 460.1% and a half-maximal response (EC50) required 2260 nM. At delF508-CFTR, the “MTECC24 CFHBEC-Amax %” value stood at 60.8% and the EC50 worked out at 1080 nM.

As to `Cc1ccc(C2CCCCC2)c(OC2(C(=O)NS(=O)(=O)c3cccc(N4CCC(N)(CF)CC4)n3)CC2)c1` [Example 2-19, N-((6-(4-Amino-4-(fluoromethyl)piperidin-1-yl)pyridin-2-yl)sulfonyl)-1-(2-cyclohexyl-5-methylphenoxy)cyclopropanecarboxamide], at delF508-CFTR-HRP, the Emax was found to be 326% and a half-maximal effect (EC50) was put at 2610 nM. In addition, at delF508-CFTR, the “MTECC24 CFHBEC-Amax %” value was 120% and the EC50 was found to be 61 nM.

In the case of `Cc1ccc(-c2cc(F)cc(OCC(C)C)c2)c(OC2(C(=O)NS(=O)(=O)c3cccc(N)n3)CC2)c1` [Example 1-2, N-((6-Aminopyridin-2-yl)sulfonyl)-1-((3′-fluoro-5′-isobutoxy-4-methyl-[1,1′-biphenyl]-2-yl)oxy)cyclopropane-1-carboxamide], on delF508-CFTR-HRP, the Emax is 136% and the EC50 came out at 2440 nM. For the same compound, on delF508-CFTR, the “MTECC24 CFHBEC-Amax %” value was 89% and the EC50 was determined as 45 nM.

In the case of `Cc1ccc(-c2cccc(C(F)(F)F)c2)c(OC2(C(=O)NS(=O)(=O)c3cccc(N4CCC(N)(C(F)(F)F)CC4)n3)CC2)c1` [Example 5-16, N-((6-(4-Amino-4-(trifluoromethyl)piperidin-1-yl)pyridin-2-yl)sulfonyl)-1-((4-methyl-3′-(trifluoromethyl)-[1,1′-biphenyl]-2-yl)oxy)cyclopropane-1-carboxamide], on delF508-CFTR-HRP, the Emax was 294% and a half-maximal response (EC50) required 420 nM. In addition, on delF508-CFTR, the “MTECC24 CFHBEC-Amax %” value came to 79% and the 50% effective concentration (EC50) is 7 nM.

As for `Cc1ccc(CC(C)C)c(OC2(C(=O)NS(=O)(=O)c3cccc(NC[C@@H](C)O)n3)CC2)c1` [Example 4-10, (R)-N-((6-((2-Hydroxypropyl)amino)pyridin-2-yl)sulfonyl)-1-(2-isobutyl-5-methylphenoxy)cyclopropane-1-carboxamide], at delF508-CFTR-HRP, the Emax was 374% and the EC50 stood at 3280 nM. For the same compound, at delF508-CFTR, the “MTECC24 CFHBEC-Amax %” value amounted to 71% and the EC50 is 12 nM.

As for `Cc1ccc(C2CCC3(CCCC3)OC2)c(OC2(C(=O)NS(=O)(=O)c3cccc(N4CCC(O)(c5ccc(Cl)cc5)CC4)n3)CC2)c1` (single isomer, unassigned) [Example 11-3-2, N-((6-(4-(4-chlorophenyl)-4-hydroxypiperidin-1-yl)pyridin-2-yl)sulfonyl)-1-(5-methyl-2-(6-oxaspiro[4.5]decan-8-yl)phenoxy)cyclopropane-1-carboxamide], at delF508-CFTR-HRP, the “DelF508-CFTR-HRP Amax %” value is reported as 481.9% and the EC50 is 440 nM. Besides, on delF508-CFTR, the “MTECC24 CFHBEC-Amax %” value amounted to 79.0% and the EC50 amounted to 79 nM.

On to `Cc1ccc(C2CCCCC2)c(OC2(C(=O)NS(=O)(=O)c3nc(N)ccc3F)CC2)c1` [Example 1-7, N-((6-Amino-3-fluoropyridin-2-yl)sulfony)-1-(2-cyclohexyl-5-methylphenoxy)cyclopropane-1-carboxamide], for which, at delF508-CFTR-HRP, the Emax stood at 109% and the EC50 came out at 2830 nM. For the same compound, on delF508-CFTR, the “MTECC24 CFHBEC-Amax %” value is 54% and the EC50 was 40 nM.

`CC1(O)CN(c2cccc(S(=O)(=O)NC(=O)C3(Oc4cc(Cl)ccc4C4CC5(CCC5)C4)CC3)n2)C1` [Example 7-10, 1-(5-Chloro-2-(spiro[3.3]heptan-2-yl)phenoxy)-N-((6-(3-hydroxy-3-methylazetidin-1-yl)pyridin-2-yl)sulfonyl)cyclopropane-1-carboxamide]: at delF508-CFTR-HRP, the Emax was 367% and the response was half-maximal at 1670 nM (EC50). Further, at delF508-CFTR, the “MTECC24 CFHBEC-Amax %” value amounted to 115.5% and the EC50 came out at 356 nM.

For `Cc1ccc(N2CCC3(CC2)CC3)c(OC2(C(=O)NS(=O)(=O)c3cccc(N4CC[C@H](O)C4)n3)CC2)c1` [Example 9-11, (S)—N-((6-(3-Hydroxypyrrolidin-1-yl)pyridin-2-yl)sulfonyl)-1-(5-methyl-2-(6-azaspiro[2.5]octan-6-yl)phenoxy)cyclopropanecarboxamide], at delF508-CFTR-HRP, the Emax is 580% and the EC50 was 1640 nM. Also, at delF508-CFTR, the “MTECC24 CFHBEC-Amax %” value is 133.4% and the EC50 stood at 396 nM.

Turning to `Cc1ccc(C2CCCCC2)c(OC2(C(=O)NS(=O)(=O)c3cccc(N4CCC5(CCCC5N)CC4)n3)CC2)c1` (stereo not shown) [Example 2-20, N-((6-(1-Amino-8-azaspiro[4.5]decan-8-yl)pyridin-2-yl)sulfonyl)-1-(2-cyclohexyl-5-methylphenoxy)cyclopropanecarboxamide], on delF508-CFTR-HRP, the Emax was found to be 354% and the EC50 is 2540 nM. Besides, on delF508-CFTR, the “MTECC24 CFHBEC-Amax %” value came out at 122% and the EC50 worked out at 198 nM.

Consider `Cc1ccc(C2CCCCC2)c(OC2(C(=O)NS(=O)(=O)c3cccc(N4CC(O)C4)n3)CC2)c1` [Example 2-1, 1-(2-Cyclohexyl-5-methylphenoxy)-N-((6-(3-hydroxyazetidin-1-yl)pyridin-2-yl)sulfonyl)cyclopropanecarboxamide], for which, on delF508-CFTR-HRP, the Emax was 668% and the EC50 was found to be 2360 nM. Also, on delF508-CFTR, the “MTECC24 CFHBEC-Amax %” value was found to be 97% and the EC50 was 5 nM.

As for `[2H]C1([2H])OC([2H])([2H])C([2H])([2H])N(c2cccc(S(=O)(=O)NC(=O)C3(Oc4cc(C)ccc4C4CCCCC4)CC3)n2)C1([2H])[2H]` [Example 2-39, 1-(2-Cyclohexyl-5-methylphenoxy)-N-((6-(morpholino-d8)pyridin-2-yl)sulfonyl)cyclopropane-1-carboxamide], at delF508-CFTR-HRP, the Emax amounted to 383% and a half-maximal response (EC50) required 1800 nM. Moreover, on delF508-CFTR, the “MTECC24 CFHBEC-Amax %” value was 67% and the EC50 was 2 nM.

On to `Cc1ccc(C2CCC(F)(F)CC2)c(OC2(C(=O)NS(=O)(=O)c3cccc(N4CCCC(CO)C4)n3)CC2)c1` (single isomer, unassigned) [Example 3-3-1], for which, at delF508-CFTR-HRP, the Emax came to 597% and the EC50 is 2870 nM. Moreover, at delF508-CFTR, the “MTECC24 CFHBEC-Amax %” value came to 99% and the EC50 amounted to 11 nM.

For the origin of these results see patent publication US20220033407A1, “N-(pyridin-2-ylsulfonyl)cyclopropanecarboxamide Derivatives and their Use in the Treatment of Disease” (NOVARTIS AG, priority 2018, published 2022).
